Test results reported in patent US10918645B2 (LIFEARC, priority 2016, dated 2021).

Tests used:
Format in all cases: biochemical
NEK6 = NEK6 (Homo sapiens (Human), UniProt Q9HC98); assay: NEK6 kinase selectivity assay; conditions: 1 μM inhibitor concentration
Experimental: NEK6 (5-20 mU diluted in 50 mM Tris (pH 7.5), 0.1 mM EGTA, 1 mg/ml BSA, 0.1%, b-Mercaptoethanol) is assayed against NEK6 peptide ([…]) in a final volume of 25.5 μl containing 50 mM Tris (pH 7.5), 0.1 mM EGTA, 0.01% Brij, 0.1%, b-Mercaptoethanol, NEK6 peptide (0.3 mM), 10 mM magnesium acetate and 0.05 mM [33P-g-ATP](500-1000 cpm/pmole) and incubated for 30 min at room temperature. Assays are stopped by addition of 5 μl of 0.5 M (3%) orthophosphoric acid and then harvested onto P81 Unifilter plates with a wash buffer of 50 mM orthophosphoric acid.

MEKK1 = MEKK1 (Homo sapiens (Human), UniProt Q13233); assay: MEKK1 kinase selectivity assay; conditions: 1 μM inhibitor concentration
Experimental: (§1) MEKK1 (5-20 mU diluted in 50 mM Tris pH 7.5, 0.1 mM EGTA, 0.1% 0-mercaptoethanol, 1 mg/ml BSA) is assayed against MBP in a final volume of 25.5 μl containing 50 mM Tris pH 7.5, 0.1 mM EGTA, 0.33 mg/ml MBP, 10 mM magnesium acetate and 0.02 mM [33P-γ-ATP] (50-1000 cpm/pmole) and incubated for 30 min at room temperature. Assays are stopped by addition of 5 μl of 0.5 M (3%) orthophosphoric acid and then harvested onto P81 Unifilter plates with a wash buffer of 50 mM orthophosphoric acid.

CHK2 = CHK2 (Homo sapiens (Human), UniProt O96017); assay: CHK2 kinase selectivity assay; conditions: 1 μM inhibitor concentration
Experimental: CHK2 (5-20 mU diluted in 20 mM MOPS pH 7.5, 1 mM EDTA, 0.1% b-mercaptoethanol, 0.01% Brij-35, 5% glycerol, 1 mg/ml BSA) is assayed against CHKtide substrate peptide ([…]) in a final volume of 25.5 μl containing 8 mM MOPS pH 7.0, 0.2 mM EDTA, 200 μM CHKtide, 10 mM magnesium acetate and 0.02 mM [33P-g-ATP](50-1000 cpm/pmole) and incubated for 30 min at room temperature Assays are stopped by addition of 5 μl of 0.5 M (3%) orthophosphoric acid and then harvested onto P81 Unifilter plates with a wash buffer of 50 mM orthophosphoric acid.

PKD1 = PKD1 (Homo sapiens (Human), UniProt Q15139); assay: PKD1 kinase selectivity assay; conditions: 1 μM inhibitor concentration
Experimental: as §1, with “PKD1” for “MEKK1”, “b-mercaptoethanol,” for “0-mercaptoethanol,”, “substrate peptide ([…])” for “against MBP”, “0.05% b-mercaptoethanol, 30 μM substrate peptide,” for “0.1 mM EGTA, 0.33 mg/ml MBP,”, “0.05” for “0.02”, “[33P-g-ATP]” for “[33P-γ-ATP]”

HIPK2 = HIPK2 (Homo sapiens (Human), UniProt Q9H2X6); assay: HIPK2 kinase selectivity assay; conditions: 1 μM inhibitor concentration
Experimental: 5-20 mU of HIPK2 (diluted in 50 mM Tris (pH 7.5), […] EGTA, 1 mg/ml BSA, 0.1%, b-Mercaptoethanol) is assayed against MBP in a final volume of 25.5 μl containing 50 mM Tris (pH 7.5), 0.1 mM EGTA, 0.1%, b-Mercaptoethanol, 0.33 mg/ml MBP, 10 mM magnesium acetate and 0.005 mM [33P-g-ATP](500-1000 cpm/pmole) and incubated for 30 mins at room temperature. Assays are stopped by addition of 5 μl of 0.5M (3%) orthophosphoric acid. Assays are harvested onto P81 Unifilter plates using a wash buffer of 50 mM orthophosphoric acid.

JAK2 = JAK2 (Homo sapiens (Human), UniProt O60674); assay: LANCE Kinase Assay (JAK2_IC50 selectivity assay)
Excerpt: In LANCE® Kinase Assay (JAK2_IC50 selectivity assay): JAK2 (Invitrogen, Cat. No PV4288), ATP (Sigma, Cat. No. A7699-1G), DMSO (Sigma, Cat. No. D2650), DTT (Sigma, Cat. No. 43815), LANCE Ultra ULight™-JAK-1 peptide (Perkin Elmer, Cat. No. TRF0121), LANCE Eu-W1024 Anti-phosphotyrosine (PT66) (Perkin Elmer, Cat. No. AD0069), LANCE™ Detection Buffer (Perkin Elmer, Cat. No. CR97-100), Tofacitinib (PharmaBlock Sciences(Nanjing), Inc, Cat. No. PBN2011586-01); Equipments: Envision (Perkin Elmer), Bravo (Agilent); Consumables: 384 well Intermediate plate (Greiner, Cat. No. 781280), 384 well assay plate (Perkin Elmer, Cat. No. 6007299),
The assay involves two steps, the enzymatic step and the detection step with HTRF reagents. Step 1: During the enzymatic step the substrate-biotin is incubated with the kinase of interest. ATP is added to start the reaction. Step 2: The detection reagent catches the phosphorylated substrate and the resulting TR-FRET is proportional to the phosphorylation level.
Compound Preparation: Dissolve the test compounds into 30 mM DMSO solution and put them in nitrogen hood at room temperature for long term storage; Dilute the 30 mM compound in DMSO with 3-fold factor, total 11 concentrations; Aspirate 1 μl compound and then dilute them in 25 folds with kinase buffer. Mix well and balance 30 minutes at room temperature.
Kinase Reaction: Transfer 2.5 μl compounds in kinase buffer (4×) into assay plate by Agilent Bravo. Spin the plate; Transfer 5 μl enzyme mixture into the assay plate by using Eppendorf electronic multi-channel pipette. Spin the plate; Incubate the assay plate for 20 minutes at room temperature (23° C.); Add 2.5 μl kinase buffer with ATP into the assay plate by using Multidrop. Spin and seal the plate; Incubate the assay plate for 90 minutes at room temperature (23° C.).
Stop Reaction: Transfer 10 μl detection reagent (2 nM LANCE Eu-W1024 Anti-phosphotyrosine) into the assay plate by using Eppendorf electronic multi-channel pipette. Spin and seal the plate; Incubate the assay plate at room temperature (23° C.) for 60 minutes.
Detection and Read: The excitation wavelength is 340 nm, the primary emission wavelength is 615 nm and the secondary emission wavelength is 665 nm (for Cryptate and Ulight, respectively). Read the plate with EnVision to get the readout of both wavelengths; Calculate the ratio of 665 nm/615 nm.
IC50 estimates were obtained using the software XLfit (IDBS Inc.).

Chain of CHK2 (O96017 whole entry, species assumed): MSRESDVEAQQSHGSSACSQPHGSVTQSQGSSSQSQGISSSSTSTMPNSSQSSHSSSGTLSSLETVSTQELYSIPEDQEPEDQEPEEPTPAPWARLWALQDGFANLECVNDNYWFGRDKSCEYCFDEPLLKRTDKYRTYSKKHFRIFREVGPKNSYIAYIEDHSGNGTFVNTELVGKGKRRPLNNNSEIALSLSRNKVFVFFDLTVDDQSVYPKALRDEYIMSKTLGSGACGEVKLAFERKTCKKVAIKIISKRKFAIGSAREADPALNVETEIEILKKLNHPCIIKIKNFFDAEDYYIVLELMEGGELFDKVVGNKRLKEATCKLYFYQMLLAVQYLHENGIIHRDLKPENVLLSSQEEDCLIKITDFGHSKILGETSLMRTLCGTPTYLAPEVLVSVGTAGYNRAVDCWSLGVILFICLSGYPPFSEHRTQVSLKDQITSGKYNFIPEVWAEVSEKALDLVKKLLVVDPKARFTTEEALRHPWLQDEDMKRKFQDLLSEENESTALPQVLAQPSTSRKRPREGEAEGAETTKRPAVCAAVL
Chain of NEK6 (Q9HC98 whole entry, species assumed): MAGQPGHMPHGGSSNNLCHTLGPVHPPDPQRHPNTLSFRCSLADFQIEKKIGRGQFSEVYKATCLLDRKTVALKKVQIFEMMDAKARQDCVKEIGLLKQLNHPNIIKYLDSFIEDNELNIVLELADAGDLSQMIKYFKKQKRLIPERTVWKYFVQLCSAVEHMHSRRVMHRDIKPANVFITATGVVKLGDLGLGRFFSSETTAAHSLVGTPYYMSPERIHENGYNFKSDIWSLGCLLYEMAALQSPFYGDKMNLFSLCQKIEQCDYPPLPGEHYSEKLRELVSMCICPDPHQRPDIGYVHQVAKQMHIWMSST
Chain of MEKK1 (Q13233 whole entry, species assumed): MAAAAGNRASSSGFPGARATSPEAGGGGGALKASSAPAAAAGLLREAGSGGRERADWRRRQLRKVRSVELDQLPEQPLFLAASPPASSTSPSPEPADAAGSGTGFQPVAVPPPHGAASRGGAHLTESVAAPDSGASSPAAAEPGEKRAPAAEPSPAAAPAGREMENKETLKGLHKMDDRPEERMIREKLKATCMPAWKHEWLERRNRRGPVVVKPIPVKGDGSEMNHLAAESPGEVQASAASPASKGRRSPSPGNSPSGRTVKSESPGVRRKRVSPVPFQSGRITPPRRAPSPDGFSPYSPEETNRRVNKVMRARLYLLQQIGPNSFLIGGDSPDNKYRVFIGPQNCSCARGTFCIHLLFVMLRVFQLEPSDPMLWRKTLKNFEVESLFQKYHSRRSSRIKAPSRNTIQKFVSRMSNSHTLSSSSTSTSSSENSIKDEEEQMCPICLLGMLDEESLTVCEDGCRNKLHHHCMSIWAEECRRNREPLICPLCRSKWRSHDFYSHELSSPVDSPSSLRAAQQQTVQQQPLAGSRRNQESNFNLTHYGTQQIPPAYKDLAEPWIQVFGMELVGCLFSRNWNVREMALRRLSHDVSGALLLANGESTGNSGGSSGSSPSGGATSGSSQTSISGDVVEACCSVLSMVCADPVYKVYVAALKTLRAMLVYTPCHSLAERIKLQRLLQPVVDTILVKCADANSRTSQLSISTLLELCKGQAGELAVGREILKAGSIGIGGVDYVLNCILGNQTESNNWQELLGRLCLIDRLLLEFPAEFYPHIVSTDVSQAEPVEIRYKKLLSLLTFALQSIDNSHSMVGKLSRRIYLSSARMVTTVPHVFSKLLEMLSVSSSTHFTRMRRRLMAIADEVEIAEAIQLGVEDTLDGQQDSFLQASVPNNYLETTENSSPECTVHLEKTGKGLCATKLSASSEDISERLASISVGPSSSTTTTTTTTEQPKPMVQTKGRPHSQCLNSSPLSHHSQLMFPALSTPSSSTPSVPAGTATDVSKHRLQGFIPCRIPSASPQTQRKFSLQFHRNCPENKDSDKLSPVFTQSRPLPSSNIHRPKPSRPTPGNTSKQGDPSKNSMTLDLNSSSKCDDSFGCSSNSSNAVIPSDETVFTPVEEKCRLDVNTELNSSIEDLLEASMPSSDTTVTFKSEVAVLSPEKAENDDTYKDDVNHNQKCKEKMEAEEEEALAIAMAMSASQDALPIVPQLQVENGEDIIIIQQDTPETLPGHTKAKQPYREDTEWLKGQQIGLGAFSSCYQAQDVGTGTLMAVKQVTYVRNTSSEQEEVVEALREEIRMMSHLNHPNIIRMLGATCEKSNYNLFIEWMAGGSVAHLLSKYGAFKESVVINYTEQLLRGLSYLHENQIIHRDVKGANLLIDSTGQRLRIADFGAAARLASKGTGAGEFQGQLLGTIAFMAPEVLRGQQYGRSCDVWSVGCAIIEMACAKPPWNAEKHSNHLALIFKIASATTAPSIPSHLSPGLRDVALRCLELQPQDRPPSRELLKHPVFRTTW
Chain of HIPK2 (Q9H2X6 whole entry, species assumed): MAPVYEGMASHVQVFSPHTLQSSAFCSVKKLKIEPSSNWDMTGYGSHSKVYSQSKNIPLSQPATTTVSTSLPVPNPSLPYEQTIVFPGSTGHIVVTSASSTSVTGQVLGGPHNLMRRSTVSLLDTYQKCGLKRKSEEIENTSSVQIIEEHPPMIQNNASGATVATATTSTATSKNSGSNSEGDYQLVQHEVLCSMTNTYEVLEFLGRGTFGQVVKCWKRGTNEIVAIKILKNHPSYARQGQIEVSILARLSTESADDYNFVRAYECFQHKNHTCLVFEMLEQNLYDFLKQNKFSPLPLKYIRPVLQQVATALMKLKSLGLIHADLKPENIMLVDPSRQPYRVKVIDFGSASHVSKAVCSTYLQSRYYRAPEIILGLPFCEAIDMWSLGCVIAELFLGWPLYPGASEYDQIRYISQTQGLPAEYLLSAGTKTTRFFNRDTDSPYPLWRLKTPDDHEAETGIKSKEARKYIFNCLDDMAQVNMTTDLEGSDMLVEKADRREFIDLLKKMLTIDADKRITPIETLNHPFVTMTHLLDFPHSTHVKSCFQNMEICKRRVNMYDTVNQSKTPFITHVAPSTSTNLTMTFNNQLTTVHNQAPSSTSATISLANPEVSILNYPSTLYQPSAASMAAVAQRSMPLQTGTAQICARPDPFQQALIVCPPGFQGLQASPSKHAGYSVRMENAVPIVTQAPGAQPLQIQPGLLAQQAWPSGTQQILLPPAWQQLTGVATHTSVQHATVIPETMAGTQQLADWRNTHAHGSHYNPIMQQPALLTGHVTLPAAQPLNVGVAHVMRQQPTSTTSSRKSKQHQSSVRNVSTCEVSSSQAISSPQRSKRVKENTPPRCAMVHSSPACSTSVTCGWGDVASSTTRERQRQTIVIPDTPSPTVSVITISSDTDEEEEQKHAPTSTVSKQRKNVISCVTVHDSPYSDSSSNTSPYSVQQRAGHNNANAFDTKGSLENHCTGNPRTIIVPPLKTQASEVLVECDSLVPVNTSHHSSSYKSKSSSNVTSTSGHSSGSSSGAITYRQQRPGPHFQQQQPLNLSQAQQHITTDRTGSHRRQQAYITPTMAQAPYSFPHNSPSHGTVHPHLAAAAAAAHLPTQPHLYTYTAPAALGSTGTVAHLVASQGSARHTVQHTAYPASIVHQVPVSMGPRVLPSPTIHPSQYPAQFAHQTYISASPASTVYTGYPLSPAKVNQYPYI
Chain of PKD1 (Q15139 whole entry): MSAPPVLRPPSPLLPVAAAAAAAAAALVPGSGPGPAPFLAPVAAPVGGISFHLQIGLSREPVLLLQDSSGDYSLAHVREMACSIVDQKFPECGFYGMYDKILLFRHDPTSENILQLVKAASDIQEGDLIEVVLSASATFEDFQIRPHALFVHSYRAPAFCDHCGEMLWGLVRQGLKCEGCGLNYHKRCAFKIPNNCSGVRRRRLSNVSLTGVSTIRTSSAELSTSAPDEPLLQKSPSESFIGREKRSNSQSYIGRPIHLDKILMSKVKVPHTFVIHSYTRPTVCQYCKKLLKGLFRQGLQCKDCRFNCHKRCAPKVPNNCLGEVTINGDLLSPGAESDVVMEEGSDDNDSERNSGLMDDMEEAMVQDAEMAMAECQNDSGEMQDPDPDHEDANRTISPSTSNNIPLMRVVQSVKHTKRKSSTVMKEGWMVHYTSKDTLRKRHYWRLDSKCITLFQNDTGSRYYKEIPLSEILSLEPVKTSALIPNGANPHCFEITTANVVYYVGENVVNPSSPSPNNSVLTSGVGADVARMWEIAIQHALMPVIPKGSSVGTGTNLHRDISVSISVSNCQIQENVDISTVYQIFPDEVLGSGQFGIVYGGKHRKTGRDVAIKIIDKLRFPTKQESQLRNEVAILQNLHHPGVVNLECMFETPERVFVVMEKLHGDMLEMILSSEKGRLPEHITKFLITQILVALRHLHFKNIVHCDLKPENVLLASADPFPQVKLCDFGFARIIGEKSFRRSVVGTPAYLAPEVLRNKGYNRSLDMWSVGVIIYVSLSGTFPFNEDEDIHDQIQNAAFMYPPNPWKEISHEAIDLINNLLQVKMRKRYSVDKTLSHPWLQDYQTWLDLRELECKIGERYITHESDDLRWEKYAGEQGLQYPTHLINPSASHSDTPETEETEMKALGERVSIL

c1cc2[nH]nc3c2c(n1)N(C1CCOCC1)CCC3 [Example 29, 6-(tetrahydro-2H-pyran-4-yl)-6,7,8,9-tetrahydro-2H-1,2,5,6-tetraazabenzo[cd]azulene]
percentage inhibition of NEK6 (NEK6): 1 percentage
percentage inhibition of MEKK1 (MEKK1): 0 percentage
percentage inhibition of CHK2 (CHK2): 2 percentage
percentage inhibition of PKD1 (PKD1): 3 percentage
percentage inhibition of HIPK2 (HIPK2): 3 percentage

CN1CCC(N2Cc3ccccc3-c3n[nH]c4ccnc2c34)CC1 [Example 55]
percentage inhibition of NEK6 (NEK6): 0 percentage
percentage inhibition of MEKK1 (MEKK1): 5 percentage
percentage inhibition of CHK2 (CHK2): 80 percentage
percentage inhibition of PKD1 (PKD1): 73 percentage
percentage inhibition of HIPK2 (HIPK2): 1 percentage

c1cc2[nH]nc3c2c(n1)N(C1CCCC1)CCC3 [Example 23, 6-cyclopentyl-6,7,8,9-tetrahydro-2H-1,2,5,6-tetraazabenzo[cd]azulene]
percentage inhibition of NEK6 (NEK6): 1 percentage
percentage inhibition of MEKK1 (MEKK1): 0 percentage
percentage inhibition of CHK2 (CHK2): 0 percentage
percentage inhibition of PKD1 (PKD1): 9 percentage
percentage inhibition of HIPK2 (HIPK2): 3 percentage

CC(C)n1ncc2c1CN(C1CCN(C)CC1)c1nccc3[nH]nc-2c13 [Example 68]
percentage inhibition of NEK6 (NEK6): 0 percentage
percentage inhibition of MEKK1 (MEKK1): 0 percentage
percentage inhibition of CHK2 (CHK2): 53 percentage
IC50 (JAK2): 6.3 µM
percentage inhibition of PKD1 (PKD1): 46 percentage
percentage inhibition of HIPK2 (HIPK2): 0 percentage

c1cc2[nH]nc3c2c(n1)N(C1CCC1)CCC3 [Example 22, 6-cyclobutyl-6,7,8,9-tetrahydro-2H-1,2,5,6-tetraazabenzo[cd]azulene]
percentage inhibition of NEK6 (NEK6): 3 percentage
percentage inhibition of MEKK1 (MEKK1): 0 percentage
percentage inhibition of CHK2 (CHK2): 11 percentage
IC50 (JAK2): 8.4 µM
percentage inhibition of PKD1 (PKD1): 20 percentage
percentage inhibition of HIPK2 (HIPK2): 11 percentage
